Assay results: publication PMC5478271, “Chemical structure-guided design of dynapyrazoles, cell-permeable dynein inhibitors with a unique mode of action” (eLife, 2017)

Legend:
IMCD3 cells = experiment: Cellular ATP content (CellTiter-Glo cytotoxicity assay); assay type: cell-based, murine
Protocol: Murine inner medullary collecting duct (IMCD3) cells stably expressing mNeonGreen-IFT88 (described previously [[Ye et al., 2013]]) were maintained in DMEM/F12 supplemented with 10% FBS. Cell line identity was confirmed by the proper localization and motility of mNeonGreen IFT88 puncta, in reference to published analyses from our groups and from the work of others ([Ye et al., 2013]; [Yang et al., 2015]). Cells were seeded in a 96-well plate at a density of 5 × 10^3 cells/well. Following overnight incubation, low-serum media (0.2% FBS) containing solvent control (0.3% DMSO) or compound. At fixed time points, CellTiter-Glo 2.0 (Promega) reagent was added to the wells, mixed by pipetting, and transferred to a white, opaque 96-well plate. After a 10 min incubation, luminescence for each condition was read using a Synergy Neo plate reader (1 s integration time per well).

[1] = system: IMCD3 cells stably expressing mNeonGreen-IFT88; experiment: Intraflagellar transport assay (mNeonGreen-IFT88 particles in primary cilia); assay type: cell-based, murine
Description: To quantitatively assess the effect of dynapyrazole-A treatment on intraflagellar transport, we analyzed time-lapse images of cilia using KymographDirect, an automated analysis algorithm that extracts particle velocities from kymographs ([Mangeol et al., 2016]). […] Under control conditions (0.3% DMSO, Figure 4B), anterograde particles moved with a speed of 694 ± 117 nm/s (Figure 4D and F, mean ± S.D., 429 particles, 38 cilia) and retrograde particles moved at 421 ± 156 nm/s (Figure 4D and F, 244 particles, 38 cilia), consistent with previous studies ([Ye et al., 2013]). […] After 10 min of treatment, reductions in velocities were similar to those at the 5 min time point (Figure 4—figure supplement 1). Treatment of cilia with a higher dynapyrazole-A concentration (10 µM) slowed both retrograde- and anterograde-directed motion (Figure 4—figure supplement 2). […] We note that dynapyrazole-A, at concentrations close to the IC50 for inhibiting microtubule gliding in vitro, alters intraflagellar transport in a manner similar to what has been observed following dynein 2 loss-of-function in Chlamydomonas ([Engel et al., 2012]).
Murine inner medullary collecting duct (IMCD3) cells stably expressing mNeonGreen-IFT88 were maintained in DMEM/F12 supplemented with 10% FBS. Cells were typically passaged fewer than 10 times following thawing of frozen stocks. Cells were described previously ([Ye et al., 2013]). 6 × 10^5 cells were seeded onto 22-mm coverslips in a six well plate and incubated for 24 hr at 37°C. The media was then replaced with DMEM/F12 +0.2% FBS and cells were incubated 24 hr to promote cilium formation. Immediately prior to imaging, media was replaced with phenol red-free media (Leibovitz's L-15 + 0.2% FBS) containing either carrier solvent control (0.3% DMSO) or compound. IFT88 transport was observed using a TE2000-E spinning disk confocal microscope (Nikon PlanApo 100x/1.45 objective lens) fitted with a Photometrics Cascade II (EMCCD 512) camera and imaged at a frame rate of 2 frames/s. Kymographs were generated in FIJI using KymographClear and the velocities of mNeonGreen-IFT88 foci movement were quantified by KymographDirect ([Mangeol et al., 2016]). The algorithm used to identify IFT88 foci could identify particles with velocitities ≥ 25nm/s as moving particles.
For washout experiments, cells were exposed to a 5-min compound treatment as described above. Cells were then washed twice with 5 mL of L-15 supplemented with 10% FBSand 0.3% DMSO. A 5-min incubation followed each wash. Imaging was performed as described above immediately after the second 5-min wash and incubation step had been completed. For washout experiments shown in Figure 4—figure supplement 3, wash steps were performed with either L-15 supplemented with 10% FBS or L-15 supplemented with 0.2% FBS. Following washout of compound, cells were incubated at 37° for 60-min and then imaged.
Statistical analysis of intraflagellar transport frequencies: Run frequencies output directly from KymographDirect were tabulated across all cilia imaged in a given condition (see Figure 4—figure supplement 2). For each of two experimental conditions (5 µM 8, 10 µM 8) and the respective controls, an un-paired T-test was performed for the difference of means control and compound treatment. This analysis was performed for each direction of motion.

[2] = 5 µM 5 min, then washout 10 min in 10% FBS, 0.3% DMSO
[3] = 5 µM, then 0.2% FBS washout for 1 hr
[4] = 5 µM, then 10% FBS washout for 1 hr

Question: For N#Cc1c(C2(c3ccc(Cl)cc3)CC2)nn2c1[nH]c(=O)c1cc(I)ccc12 [Compound 8, 2-[1-(4-chlorophenyl)cyclopropyl]-7-iodo-5-oxo-4H-pyrazolo[1,5-a]quinazoline-3-carbonitrile], which “ATP levels in cells” value (IMCD3 cells; 5 µM, low-serum or serum-free media) is on record?
Answer: Its value is “stable for up to 3 hr”.

Question: And the “Lowering of intracellular ATP levels” value (IMCD3 cells; 15 µM, at 3 hr)?
Answer: The value was ~ 70%.

Question: What about the “Fa, anterograde frequency after washout” value [1, 2] of the same compound?
Answer: The value was 14.2 ± 6 counts/minute.

Question: And the “Fr, retrograde frequency after washout” value [1, 2]?
Answer: The value was 9.6 ± 7 counts/minute.

Question: And the “Va, anterograde velocity after washout” value [1, 2]?
Answer: The value was 697 ± 149 nm/s.

Question: What about the “Vr, retrograde velocity after washout” value [1, 2] of the same compound?
Answer: Its value is 467 ± 136 nm/s.

Question: What about the “Reduction of anterograde particle velocities” value ([1]; 5 µM, 5 min, versus DMSO control) of the same compound?
Answer: Its value is ~ 18%.

Question: And the “Fr, retrograde frequency” value ([1]; 5 µM, 5 min, DMSO control 6.5 ± 4)?
Answer: Its value is 4.1 ± 3 counts/minute.

Question: What about the “Fa, anterograde frequency” value ([1]; 5 µM, 5 min, DMSO control 11.3 ± 3) of the same compound?
Answer: Its value is 8.5 ± 5 counts/minute.

Question: What about the “Vr, retrograde velocity” value ([1]; 5 µM, 5 min, DMSO control 421 ± 156) of the same compound?
Answer: The value was 156 ± 107 nm/s.

Question: What about the “Va, anterograde velocity” value ([1]; 5 µM, 5 min, DMSO control 694 ± 117) of the same compound?
Answer: The value was 566 ± 116 nm/s.

Question: And the “Fr, retrograde frequency” value ([1]; 5 µM, 10 min, DMSO control 5.9 ± 3)?
Answer: The value was 4.2 ± 3 counts/minute.

Question: And the “Fa, anterograde frequency” value ([1]; 5 µM, 10 min, DMSO control 10.2 ± 3)?
Answer: The value was 6.9 ± 4 counts/minute.

Question: What about the “Vr, retrograde velocity” value ([1]; 5 µM, 10 min, DMSO control 354 ± 134) of the same compound?
Answer: The value was 202 ± 180 nm/s.

Question: And the “Va, anterograde velocity” value ([1]; 5 µM, 10 min, DMSO control 655 ± 124)?
Answer: The value was 572 ± 121 nm/s.

Question: What about the “Fa, anterograde frequency after low-serum washout” value [1, 3] of the same compound?
Answer: Its value is 10.1 ± 4 counts/minute.

Question: What about the “Fr, retrograde frequency after low-serum washout” value [1, 3] of the same compound?
Answer: The value was 5.2 ± 2 counts/minute.

Question: What about the “Va, anterograde velocity after low-serum washout” value [1, 3] of the same compound?
Answer: Its value is 620 ± 134 nm/s.

Question: What about the “Vr, retrograde velocity after low-serum washout” value [1, 3] of the same compound?
Answer: The value was 219 ± 117 nm/s.

Question: What about the “Fa, anterograde frequency after high-serum washout” value [1, 4] of the same compound?
Answer: The value was 18.8 ± 5 counts/minute.

Question: And the “Fr, retrograde frequency after high-serum washout” value [1, 4]?
Answer: The value was 12.4 ± 6 counts/minute.

Question: And the “Va, anterograde velocity after high-serum washout” value [1, 4]?
Answer: The value was 660 ± 112 nm/s.

Question: And the “Vr, retrograde velocity after high-serum washout” value [1, 4]?
Answer: Its value is 441 ± 156 nm/s.

Question: And the “Fa, anterograde frequency” value ([1]; 10 µM)?
Answer: Its value is 6.8 ± 4 counts/minute.

Question: What about the “Fr, retrograde frequency” value ([1]; 10 µM) of the same compound?
Answer: Its value is 4.0 ± 2 counts/minute.

Question: And the “Va, anterograde velocity” value ([1]; 10 µM)?
Answer: Its value is 466 ± 183 nm/s.

Question: What about the “Vr, retrograde velocity” value ([1]; 10 µM) of the same compound?
Answer: The value was 121 ± 78 nm/s.
